Data reported in patent publication US20230321122A1, “ACTIVE AGENT MODULATING THE ACTIVITY OF AN ION CHANNEL FOR USE IN HAIR GROWTH REGULATION” (CUTANEON - Skin & Hair Innovations GmbH, priority 2020, published 2023).

Key:
human hair follicles [1] = assay: Human hair follicle organ culture, hair cycle staging; format: cell-based; details: for hair cycle stage of hair follicles (anagen) vs vehicle: 12.5 (unit not given), day 3 and day 6, FIGS. 8, 9
Description: Human anagen hair follicles were isolated from the skin of males undergoing hair transplantation with written informed consent. Microdissected hair follicles were amputated at the level of dermal-subcutaneous junction and equilibrated in Williams' E medium (WEM) (Life Technologies) supplemented with 2 mM L-glutamine (Life Technologies), 10 ng/ml hydrocortisone, 10 μg/ml insulin, and antibiotics (all from Sigma-Aldrich). After 24 hours, growing undamaged anagen hair follicles were selected for treatment with DMP Human hair follicles were cultured in presence of DMP (12.5 The culture medium was changed every two days with addition of DMP. Hair follicles were photographed and percentage of hair follicles at different stages of hair cycle were calculated at day 3 and day 6 of the treatment and compared to vehicle.
(§1) Human anagen hair follicles were isolated from the skin of males undergoing hair transplantation with written informed consent. […] After 24 hours, growing undamaged anagen hair follicles were selected for treatment with 2-Hep (12.5 The culture medium was changed every two days with addition of 2-Hep. Hair follicles were photographed and percentage of hair follicles at different stages of hair cycle were calculated at day 3 and day 6 of the treatment and compared to vehicle.
as §1, with “human hair follicles were cultured in presence of TPPO (150” for “2-Hep (12.5”, “TPPO.” for “2-Hep.”

human hair follicles [2] = assay: Quantitative PCR gene expression in compound-treated human hair follicles; format: cell-based; details: 6 hours, vs vehicle
Description: Total RNA was isolated using PICOPURE® RNA Isolation Kit (Applied BioSystems) according to the manufacturer's protocol. After isolation, 100 ng of total RNA was reverse-transcribed into cDNA using a TETRO® cDNA synthesis kit (Bioline). Quantitative-PCR was performed using the StepOne Plus real time PCR system (Applied Biosystems) using TAQMAN® fast advanced master mix and TAQMAN® probes for LEF1, IGF1, TGFB2 AND SFRP1 (Applied Biosystems). The amount of the aforementioned transcripts was normalized to the expression of reference gene (GAPDH) using the ΔΔCt method. Results were performed in triplicate for each experiment.
For gene expression analysis, human hair follicles were microdissected as above and treated with 2-Hep (12.5 uM) for 6 hours. Following the treatment, total RNA was isolated and processed for cDNA synthesis as above. Quantitate PCR was performed using TAQMAN® assay with probes for TGFB2 and AXIN2 (Applied Biosystems).
For gene expression analysis, human hair follicles were microdissected as above and treated with TPPO (150 uM) for 6 hours. Following the treatment, total RNA was isolated and processed for cDNA synthesis as above. Quantitate PCR was performed using TAQMAN® assay with probes for IGF1, FGF7 and TGFB2 (Applied Biosystems).

| SMILES | hair cycle stage of hair follicles (anagen) vs vehicle (human hair follicles [1]) | expression of AXIN2 (human hair follicles [2]; 12.5 uM, FIG. 10) | expression of TGFB2 (human hair follicles [2]; 12.5 uM, FIG. 10) | hair cycle stage of hair follicles (catagen) vs vehicle (human hair follicles [1]; 150 (unit not given), day 3 and day 6, FIG. 11) | TGFB2 transcript (human hair follicles [2]; 150 uM, FIG. 12) | expression level of FGF7 (human hair follicles [2]; 150 uM, FIG. 12) | expression level of IGF1 (human hair follicles [2]; 150 uM, FIG. 12) |
| --- | --- | --- | --- | --- | --- | --- | --- |
| CCCCCC(C)=O [2-Hep, 2-heptanone] | prolongs anagen | up-regulated | down-regulated |  |  |  |  |
| Cc1cnc(C)cn1 [DMP, 2,5-dimethylpyrazine] | prolongs anagen |  |  |  |  |  |  |
| O=P(c1ccccc1)(c1ccccc1)c1ccccc1 [TPPO, triphenylphosphine oxide] |  |  |  | promotes catagen | up-regulated | significantly down-regulated | significantly down-regulated |
